{"source": "paper PMC2864793", "about": "(Molecular cell, 2010)", "molecules": {"B1": {"name": "IRE1^K985A (Q-site mutant of yeast IRE1 658–1115) (domain or fragment, UniProt P32361 658-1115, looked up)", "chain": "SRIANIPNFEQSLKNLVVSEKILGYGSSGTVVFQGSFQGRPVAVKRMLIDFCDIALMEIKLLTESDDHPNVIRYYCSETTDRFLYIALELCNLNLQDLVESKNVSDENLKLQKEYNPISLLRQIASGVAHLHSLKIIHRDLKPQNILVSTSSRFTADQQTGAENLRILISDFGLCKKLDSGQSSFRTNLNNPSGTSGWRAPELLEESNNLQCQVETEHSSSRHTVVSSDSFYDPFTKRRLTRSIDIFSMGCVFYYILSKGKHPFGDKYSRESNIIRGIFSLDEMKCLHDRSLIAEATDLISQMIDHDPLKRPTAMKVLRHPLFWPKSAKLEFLLKVSDRLEIENRDPPSALLMKFDAGSDFVIPSGDWTVKFDKTFMDNLERYRKYHSSKLMDLLRALRNKYHHFMDLPEDIAELMGPVPDGFYDYFTKRFPNLLIGVYMIVKENLSDDQILREFLYS", "modifications": "purified as a phosphorylated protein (sites not given)"}, "B2": {"name": "cytosolic portion of yeast IRE1 (residues 658–1115; inclusive of both the kinase and KEN domains) (domain or fragment, UniProt P32361 658-1115, looked up)", "chain": "SRIANIPNFEQSLKNLVVSEKILGYGSSGTVVFQGSFQGRPVAVKRMLIDFCDIALMEIKLLTESDDHPNVIRYYCSETTDRFLYIALELCNLNLQDLVESKNVSDENLKLQKEYNPISLLRQIASGVAHLHSLKIIHRDLKPQNILVSTSSRFTADQQTGAENLRILISDFGLCKKLDSGQSSFRTNLNNPSGTSGWRAPELLEESNNLQCQVETEHSSSRHTVVSSDSFYDPFTKRRLTRSIDIFSMGCVFYYILSKGKHPFGDKYSRESNIIRGIFSLDEMKCLHDRSLIAEATDLISQMIDHDPLKRPTAMKVLRHPLFWPKSKKLEFLLKVSDRLEIENRDPPSALLMKFDAGSDFVIPSGDWTVKFDKTFMDNLERYRKYHSSKLMDLLRALRNKYHHFMDLPEDIAELMGPVPDGFYDYFTKRFPNLLIGVYMIVKENLSDDQILREFLYS", "modifications": "phosphorylated when purified from bacteria (sites not given for this construct)"}}, "key": {"IRE1 [1]": {"target": "T1, IRE1 (Saccharomyces cerevisiae, UniProt P32361, K985A)", "T1 sequence (P32361 658-1115 K985A)": "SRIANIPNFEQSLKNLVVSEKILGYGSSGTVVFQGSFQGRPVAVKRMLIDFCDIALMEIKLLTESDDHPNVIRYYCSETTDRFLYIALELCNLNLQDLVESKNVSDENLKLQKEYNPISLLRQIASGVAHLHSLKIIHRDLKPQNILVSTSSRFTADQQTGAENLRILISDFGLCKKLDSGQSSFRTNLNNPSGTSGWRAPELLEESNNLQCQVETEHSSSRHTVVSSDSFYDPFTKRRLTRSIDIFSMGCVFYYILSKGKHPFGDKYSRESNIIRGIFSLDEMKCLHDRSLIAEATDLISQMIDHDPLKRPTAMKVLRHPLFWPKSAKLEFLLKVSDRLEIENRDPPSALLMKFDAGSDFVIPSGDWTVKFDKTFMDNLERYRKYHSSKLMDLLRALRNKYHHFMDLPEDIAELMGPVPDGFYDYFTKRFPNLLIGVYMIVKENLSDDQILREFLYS", "assay": "RNase activation assay and DSS crosslinking at […] ADP", "assay_type": "biochemical"}, "IRE1 [2]": {"target": "IRE1 (Saccharomyces cerevisiae, UniProt P32361)", "assay": "co-crystal structure with quercetin", "assay_type": "biochemical"}, "IRE1 [3]": {"target": "T2, IRE1 (Saccharomyces cerevisiae, UniProt P32361, D797A)", "T2 sequence (P32361 658-1115 D797A)": "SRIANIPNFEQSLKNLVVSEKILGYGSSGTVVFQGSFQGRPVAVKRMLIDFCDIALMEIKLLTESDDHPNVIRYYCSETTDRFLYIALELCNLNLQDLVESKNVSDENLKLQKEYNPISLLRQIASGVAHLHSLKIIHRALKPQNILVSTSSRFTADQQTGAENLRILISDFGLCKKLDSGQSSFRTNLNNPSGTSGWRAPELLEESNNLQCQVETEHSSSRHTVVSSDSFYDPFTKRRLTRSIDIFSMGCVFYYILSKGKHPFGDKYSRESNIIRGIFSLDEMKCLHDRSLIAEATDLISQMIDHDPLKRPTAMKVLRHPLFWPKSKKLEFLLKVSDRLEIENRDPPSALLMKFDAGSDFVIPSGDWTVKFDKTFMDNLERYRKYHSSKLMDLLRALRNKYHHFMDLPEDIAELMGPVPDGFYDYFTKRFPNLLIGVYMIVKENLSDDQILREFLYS", "assay": "fluorescent RNase activation assay at […]", "assay_type": "biochemical"}, "cross-linking": {"target": "the molecule itself", "assay": "cross-linking"}, "AUC": {"target": "the molecule itself", "assay": "AUC"}}}
{"molecule": "Nc1ncnc2c1ncn2[C@@H]1O[C@H](COP(=O)(O)OP(=O)(O)O)[C@@H](O)[C@H]1O", "note": "[ADP]", "values": [{"measurement": "RNase activation assay and DSS crosslinking at 2 mM ADP", "setting": "IRE1 [1]", "result": "abolished by the Q-site mutant IRE1^K985A, although ADP-dependent crosslinking was still observed"}, {"measurement": "EC50", "setting": "IRE1 [2]", "result": "~40", "unit": "µM"}]}
{"molecule": "O=c1c(O)c(-c2ccc(O)c(O)c2)oc2cc(O)cc(O)c12", "note": "[quercetin]", "values": [{"measurement": "fluorescent RNase activation assay at 25 μM", "setting": "IRE1 [3]", "result": "addition of quercetin substantially activates its RNase (Figure 7C). Such activation was Q-site dependent"}]}
{"molecule": "B1", "values": [{"measurement": "binding result", "setting": "cross-linking", "result": "binds"}]}
{"molecule": "B2", "values": [{"measurement": "stoichiometry N", "setting": "AUC", "result": 2}]}
